The record followed here is patent US12371428B2 (Exelixis, Inc., priority 2019, dated 2025).

Assay type in all cases: cell-based
In assay [1] the target is Mer (phospho-Mer, MERTK-transfected 293A cells) (Homo sapiens (Human), UniProt Q12866). Kind of assay: Mer autophosphorylation ELISA in transient transfected 293A cells (Example H). As to conditions: cellular activity; Mer autophosphorylation ELISA in transient transfected 293A cells. As to the method: 293A cells (Thermo Fisher #R70507) were seeded at 1.5×10^6 cells/well onto 100 mm dish (Greiner #664169), in DMEM (Thermo Fisher #11995-040) containing 10% FBS (Thermo Fisher #26140-079), 1% MEM NEAA (Thermo Fisher #11140-050), 1% GlutaMax (Thermo Fisher #35050-061), and 1% Penicillin Streptomycin (Thermo Fisher #15140-122). 293A cells were incubated at 37° C., 5% CO2 for 24 h and then transfected with […] MERTK DNA (Genecopoeia #EX-Z8208-M02) using TransIT LT1 transfection reagent (Mirus-Bio #MIR2305). After 24 h incubation, the transfected 293A cells were seeded at 1×10^5 cells/well onto 96-well plates (Corning #3904) in DMEM growth medium overnight. Test compounds were serially diluted to produce an 8-point dose curve in fresh serum-free medium to a final concentration of 0.3% DMSO (vehicle) and added to the cells and incubated for 1 h. Cells were then immediately lysed with 150 μL of cold 1× lysis buffer [20 mM Tris, 137 mM sodium chloride, 2 mM EDTA, 10% glycerol, 1% NP-40 alternative, 1 mM activated sodium orthovanadate, 1 mM PefaBloc SC (Sigma-Aldrich #11429868001), protease/phosphatase inhibitor tablet (Thermo Fisher #A32959)]. Lysates were clarified by centrifugation and 50 µL/well added in to the human phospho-Mer DuoSet IC ELISA (R&D Systems #DYC2579-2). Assay was performed according to manufacturer's instructions and sample phospho-Mer concentrations were extrapolated using human phospho-Mer control (R&D Systems #841793) as a standard. Positive control wells (100% activity) contained DMSO-treated cell lysates. Negative control wells (0% activity) contained reference inhibitor-treated cell lysates. IC50 values were calculated by nonlinear regression analysis using a 4-parameter logistic curve fit in ActivityBase XE (JDBS).
Sequence of Mer (phospho-Mer, MERTK-transfected 293A cells) (Q12866 21-999): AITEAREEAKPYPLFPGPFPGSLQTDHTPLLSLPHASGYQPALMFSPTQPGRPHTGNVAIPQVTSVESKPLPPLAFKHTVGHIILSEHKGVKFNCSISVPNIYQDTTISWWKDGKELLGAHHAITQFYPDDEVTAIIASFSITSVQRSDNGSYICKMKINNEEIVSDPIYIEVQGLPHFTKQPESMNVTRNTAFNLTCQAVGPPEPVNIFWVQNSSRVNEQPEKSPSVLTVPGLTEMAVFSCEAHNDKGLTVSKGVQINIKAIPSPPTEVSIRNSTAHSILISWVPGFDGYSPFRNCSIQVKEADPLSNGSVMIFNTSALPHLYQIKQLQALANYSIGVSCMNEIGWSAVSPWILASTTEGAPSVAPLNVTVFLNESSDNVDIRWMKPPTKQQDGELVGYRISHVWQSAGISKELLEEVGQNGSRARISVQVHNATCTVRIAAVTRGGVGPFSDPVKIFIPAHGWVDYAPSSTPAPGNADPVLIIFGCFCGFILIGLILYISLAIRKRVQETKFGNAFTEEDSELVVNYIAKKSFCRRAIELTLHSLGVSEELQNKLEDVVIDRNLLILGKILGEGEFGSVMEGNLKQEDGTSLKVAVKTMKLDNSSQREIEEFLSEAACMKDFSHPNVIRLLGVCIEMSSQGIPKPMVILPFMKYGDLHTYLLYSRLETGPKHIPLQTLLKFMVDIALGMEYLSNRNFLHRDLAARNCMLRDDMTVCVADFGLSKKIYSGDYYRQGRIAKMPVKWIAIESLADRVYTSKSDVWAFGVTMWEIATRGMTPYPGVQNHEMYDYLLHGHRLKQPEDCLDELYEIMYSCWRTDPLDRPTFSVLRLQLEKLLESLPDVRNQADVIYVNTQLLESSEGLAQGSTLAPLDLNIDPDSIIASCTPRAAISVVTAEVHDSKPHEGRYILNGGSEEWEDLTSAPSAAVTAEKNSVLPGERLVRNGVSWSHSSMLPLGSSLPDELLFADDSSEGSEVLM
For orientation: An ELISA detects its analyte on a solid surface through an enzyme-linked reagent.

Assay [2] deals with KDR (phospho-KDR, VEGF165-stimulated HUVEC cells) (Homo sapiens (Human), UniProt P35968). Kind of assay: KDR autophosphorylation ELISA in HUVEC cells (Example G). The settings on record: cellular activity; KDR autophosphorylation ELISA in HUVEC cells. As for the experimental part:
Human umbilical vein endothelial cells or HUVEC (Lonza #C2519A) were seeded at 2×10^4 cells/well onto 96-well plates (Corning #3904), in EGM-2 growth medium (Lonza #CC-3162) containing 1% Penicillin Streptomycin (Thermo Fisher #15140-122). HUVEC cells were incubated at 37° C., 5% CO2 for 24 h and then starved for 24 h in serum-free EBM-2 basal medium (Lonza #CC-3156) containing 1% Penicillin Streptomycin. Test compounds were serially diluted to produce an 8-point dose curve in fresh serum-free medium to a final concentration of 0.3% DMSO (vehicle) and added to the cells and incubated for 1 h. Cells were then stimulated with 100 ng/mL recombinant human VEGF165 (R&D Systems #293-VE-500) for 5 min, washed with cold PBS, and immediately lysed with […] of cold 1× lysis buffer [20 mM Tris, 137 mM sodium chloride, 2 mM EDTA, 10% glycerol, 1% NP-40 alternative, 1 mM activated sodium orthovanadate, 1 mM PefaBloc SC (Sigma-Aldrich #11429868001), protease/phosphatase inhibitor tablet (Thermo Fisher #A32959)]. Lysates were collected and 100 μL/well added into the human phospho-KDR DuoSet IC ELISA (R&D Systems #DYC1766-2). Assay was performed according to manufacturer's instructions and sample phospho-KDR concentrations were extrapolated using human phospho-KDR control (R&D Systems #841421) as a standard. Positive control wells (100% activity) contained VEGF165-stimulated, DMSO-treated cell lysates. Negative control wells (0% activity) contained non-stimulated cell lysates. IC50 values were calculated by nonlinear regression analysis using a 4-parameter logistic curve fit in ActivityBase XE (IDBS).

The target in assay [3] is Met (phospho-Met, HGF-stimulated PC-3 prostate cancer cells) (Homo sapiens (Human), UniProt P08581). The assay is described as follows: Met autophosphorylation ELISA in PC-3 cells (Example F). The settings on record: cellular activity; Met autophosphorylation ELISA in PC-3 cells; read-out: c-Met IC50. As for the experimental part: PC-3 prostate cancer cells (ATCC #CRL-1435) were seeded at 4×10^4 cells/well onto 24-well plates (Greiner #662165), in DMEM (Thermo Fisher #11995-040) containing 10% FBS (Thermo Fisher #26140-079), 1% MEM NEAA (Thermo Fisher #11140-050), 1% GlutaMax (Thermo Fisher #35050-061), and 1% Penicillin Streptomycin (Thermo Fisher #15140-122). PC-3 cells were incubated at 37° C., 5% CO2 for 24 h and then starved for 3 h in serum-free medium. Test compounds were serially diluted to produce an 8-point dose curve in fresh serum-free medium to a final concentration of 0.3% DMSO (vehicle) and added to the cells and incubated for 1 h. Cells were then stimulated with 100 ng/mL recombinant human HGF (R&D Systems #294-HG-250) for 10 min, washed with cold PBS, and immediately lysed with […] of cold 1× lysis buffer [20 mM Tris, 137 mM sodium chloride, 2 mM EDTA, 10% glycerol, 1% NP-40 alternative, 1 mM activated sodium orthovanadate, 1 mM PefaBloc SC (Sigma-Aldrich #11429868001), protease/phosphatase inhibitor tablet (Thermo Fisher #A32959)]. Lysates were clarified by centrifugation and 100 μL/well added into the PathScan phospho-Met (panTyr) Sandwich ELISA (Cell Signaling Technology #7333). Assay was performed according to manufacturer's instructions. Positive control wells (100% activity) contained HGF-stimulated, DMSO-treated cell lysates. Negative control wells (0% activity) contained HGF-stimulated, reference inhibitor-treated cell lysates. IC50 values were calculated by nonlinear regression analysis using a 4-parameter logistic curve fit in ActivityBase XE (IDBS).
Sequence of Met (phospho-Met, HGF-stimulated PC-3 prostate cancer cells) (P08581 25-1390): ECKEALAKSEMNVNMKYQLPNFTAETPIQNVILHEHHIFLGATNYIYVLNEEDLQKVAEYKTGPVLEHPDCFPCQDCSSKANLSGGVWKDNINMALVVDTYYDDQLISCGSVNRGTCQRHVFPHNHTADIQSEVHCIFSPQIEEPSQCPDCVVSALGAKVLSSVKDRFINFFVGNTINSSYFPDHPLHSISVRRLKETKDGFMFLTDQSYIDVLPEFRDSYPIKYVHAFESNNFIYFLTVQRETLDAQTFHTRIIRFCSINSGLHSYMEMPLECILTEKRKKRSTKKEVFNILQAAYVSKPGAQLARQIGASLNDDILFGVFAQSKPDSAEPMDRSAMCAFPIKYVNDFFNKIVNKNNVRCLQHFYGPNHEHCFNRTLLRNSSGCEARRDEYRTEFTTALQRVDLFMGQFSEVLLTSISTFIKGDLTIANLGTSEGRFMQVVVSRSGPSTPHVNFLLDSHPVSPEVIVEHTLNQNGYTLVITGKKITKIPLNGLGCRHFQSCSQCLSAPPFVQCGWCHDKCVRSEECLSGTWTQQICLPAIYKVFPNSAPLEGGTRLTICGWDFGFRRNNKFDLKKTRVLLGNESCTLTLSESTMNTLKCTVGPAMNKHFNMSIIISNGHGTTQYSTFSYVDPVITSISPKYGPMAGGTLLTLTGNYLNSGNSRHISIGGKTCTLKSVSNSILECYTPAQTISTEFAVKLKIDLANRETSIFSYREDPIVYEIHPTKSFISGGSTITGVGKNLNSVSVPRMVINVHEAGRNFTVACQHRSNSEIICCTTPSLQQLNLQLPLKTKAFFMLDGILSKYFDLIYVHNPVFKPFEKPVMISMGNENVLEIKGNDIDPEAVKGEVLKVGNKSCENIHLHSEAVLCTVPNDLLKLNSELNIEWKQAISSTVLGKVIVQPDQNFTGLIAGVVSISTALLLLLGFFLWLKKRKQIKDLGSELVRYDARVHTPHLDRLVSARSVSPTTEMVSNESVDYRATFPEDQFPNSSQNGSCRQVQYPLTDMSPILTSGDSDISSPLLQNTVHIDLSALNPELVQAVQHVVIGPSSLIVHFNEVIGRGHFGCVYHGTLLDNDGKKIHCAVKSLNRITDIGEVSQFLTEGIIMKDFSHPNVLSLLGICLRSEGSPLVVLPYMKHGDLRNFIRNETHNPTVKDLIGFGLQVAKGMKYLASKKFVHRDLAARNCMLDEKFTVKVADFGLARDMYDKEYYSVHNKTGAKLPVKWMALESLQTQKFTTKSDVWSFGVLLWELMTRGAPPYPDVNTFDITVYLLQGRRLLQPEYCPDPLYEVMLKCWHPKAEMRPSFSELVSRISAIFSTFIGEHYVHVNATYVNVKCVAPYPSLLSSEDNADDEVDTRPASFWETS

Sequence of KDR (phospho-KDR, VEGF165-stimulated HUVEC cells) (P35968 20-1356): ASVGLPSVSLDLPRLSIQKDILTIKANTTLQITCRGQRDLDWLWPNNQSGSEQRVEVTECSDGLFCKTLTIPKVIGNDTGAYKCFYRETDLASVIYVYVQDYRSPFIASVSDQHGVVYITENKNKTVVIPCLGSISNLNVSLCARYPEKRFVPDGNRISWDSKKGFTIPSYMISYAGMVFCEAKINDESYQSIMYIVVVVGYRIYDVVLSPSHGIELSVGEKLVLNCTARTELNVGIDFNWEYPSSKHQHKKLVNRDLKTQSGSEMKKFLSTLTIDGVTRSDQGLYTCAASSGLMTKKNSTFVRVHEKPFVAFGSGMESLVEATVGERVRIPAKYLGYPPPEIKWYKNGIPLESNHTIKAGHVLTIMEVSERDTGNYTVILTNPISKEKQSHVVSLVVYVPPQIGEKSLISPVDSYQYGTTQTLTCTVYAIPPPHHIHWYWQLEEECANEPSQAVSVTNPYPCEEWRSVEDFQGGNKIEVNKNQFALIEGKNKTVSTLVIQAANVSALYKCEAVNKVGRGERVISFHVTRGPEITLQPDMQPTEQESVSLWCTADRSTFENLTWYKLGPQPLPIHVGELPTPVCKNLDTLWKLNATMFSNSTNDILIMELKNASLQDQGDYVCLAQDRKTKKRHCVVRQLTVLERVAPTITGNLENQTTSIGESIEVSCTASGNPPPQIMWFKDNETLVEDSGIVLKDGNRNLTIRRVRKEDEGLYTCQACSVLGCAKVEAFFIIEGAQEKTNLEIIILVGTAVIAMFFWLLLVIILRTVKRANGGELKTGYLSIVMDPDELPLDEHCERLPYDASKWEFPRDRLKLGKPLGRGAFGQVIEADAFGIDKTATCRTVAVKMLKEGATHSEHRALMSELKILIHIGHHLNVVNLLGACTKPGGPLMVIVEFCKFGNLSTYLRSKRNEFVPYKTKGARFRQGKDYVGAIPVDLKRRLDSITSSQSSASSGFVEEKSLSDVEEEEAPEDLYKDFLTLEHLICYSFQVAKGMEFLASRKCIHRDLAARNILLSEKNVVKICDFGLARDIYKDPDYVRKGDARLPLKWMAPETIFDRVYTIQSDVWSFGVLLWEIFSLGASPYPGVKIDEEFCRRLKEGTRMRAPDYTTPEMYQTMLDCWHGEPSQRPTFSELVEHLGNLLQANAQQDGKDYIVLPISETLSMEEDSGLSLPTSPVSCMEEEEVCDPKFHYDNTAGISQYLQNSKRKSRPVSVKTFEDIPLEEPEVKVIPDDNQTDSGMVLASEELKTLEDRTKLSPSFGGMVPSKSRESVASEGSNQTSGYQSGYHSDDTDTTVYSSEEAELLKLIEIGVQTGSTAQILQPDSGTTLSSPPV

In general, IC50 refers to the concentration that gives 50% inhibition. In the case of `CCOc1ccn(-c2ccc(F)cc2)c(=O)c1C(=O)Nc1ccc(Oc2ccnc3cc(OC)c(OC)nc23)cc1` [Compound 718, N-[4-[(6,7-dimethoxy-1,5-naphthyridin-4-yl)oxy]phenyl]-4-ethoxy-1-(4-fluorophenyl)-2-oxopyridine-3-carboxamide], the IC50 was less than 100 nM in assay [1], 100 to 300 nM in assay [2] and less than 100 nM in assay [3].

As for `COc1cnc2c(Oc3ccc(NC(=O)c4c(C)ncc(-c5ccc(F)cc5C)c4O)cc3F)ccnc2c1` [Compound 719, N-[3-fluoro-4-[(7-methoxy-1,5-naphthyridin-4-yl)oxy]phenyl]-5-(4-fluoro-2-methylphenyl)-4-hydroxy-2-methylpyridine-3-carboxamide], the IC50 in assay [1], in assay [2] and in assay [3] was less than 100 nM in each case.

As for `COc1cc2nccc(Oc3ccc(NC(=O)c4cc(C(C)=O)c(C)n(-c5ccc(F)cc5C)c4=O)cc3F)c2nc1OC` [Compound 720, 5-acetyl-N-[4-[(6,7-dimethoxy-1,5-naphthyridin-4-yl)oxy]-3-fluorophenyl]-1-(4-fluoro-2-methylphenyl)-6-methyl-2-oxopyridine-3-carboxamide], the IC50 is less than 100 nM in assay [1], greater than 300 nM in assay [2] and less than 100 nM in assay [3].

As to `COc1cc2nccc(Oc3ccc(NC(=O)c4c(C)n(CC(F)(F)F)cc(-c5ccc(F)cc5)c4=O)cc3F)c2nc1OC` [Compound 727, N-[4-[(6,7-dimethoxy-1,5-naphthyridin-4-yl)oxy]-3-fluorophenyl]-5-(4-fluorophenyl)-2-methyl-4-oxo-1-(2,2,2-trifluoroethyl)pyridine-3-carboxamide], the IC50 in assay [1] was less than 100 nM; in assay [2], 100 to 300 nM; in assay [3], less than 100 nM.

For `COc1cc2nccc(Oc3ccc(NC(=O)c4c(C)n(C(F)F)cc(-c5ccc(F)cc5)c4=O)cc3F)c2nc1OC` [Compound 729, 1-(difluoromethyl)-N-[4-[(6,7-dimethoxy-1,5-naphthyridin-4-yl)oxy]-3-fluorophenyl]-5-(4-fluorophenyl)-2-methyl-4-oxopyridine-3-carboxamide], the IC50 in assay [1], in assay [2] and in assay [3] was less than 100 nM throughout.

For the compound `COc1cc2nccc(Oc3ccc(NC(=O)c4c(C)c(C)c(C)n(-c5ccccc5)c4=O)cc3F)c2nc1OC` [Compound 755, N-[4-[(6,7-dimethoxy-1,5-naphthyridin-4-yl)oxy]-3-fluorophenyl]-4,5,6-trimethyl-2-oxo-1-phenylpyridine-3-carboxamide], the IC50 in assay [1] is less than 100 nM; in assay [2], 100 to 300 nM; in assay [3], less than 100 nM.

`COc1cc2nccc(Oc3ccc(NC(=O)c4c(C)n(CCF)cc(-c5ccc(F)cc5C)c4=O)cc3F)c2nc1OC` [Compound 756, N-[4-[(6,7-dimethoxy-1,5-naphthyridin-4-yl)oxy]-3-fluorophenyl]-1-(2-fluoroethyl)-5-(4-fluoro-2-methylphenyl)-2-methyl-4-oxopyridine-3-carboxamide]: the IC50 in assay [1], in assay [2] and in assay [3] was less than 100 nM throughout.

As to `CCOc1ccn(-c2ccc(F)cc2)c(=O)c1C(=O)Nc1ccc(Oc2ccnc3nc(OC)c(OCCOC)cc23)c(F)c1` [Compound 761, 4-ethoxy-N-[3-fluoro-4-[[7-methoxy-6-(2-methoxyethoxy)-1,8-naphthyridin-4-yl]oxy]phenyl]-1-(4-fluorophenyl)-2-oxopyridine-3-carboxamide], the 50% inhibitory concentration (IC50) in assay [1] is less than 100 nM; in assay [2], greater than 300 nM; in assay [3], less than 100 nM.

As to `COc1cc2nccc(Oc3ccc(NC(=O)c4cnc(C)c(-c5ccc(F)cc5)n4)cc3F)c2nc1OC` [Compound 764, N-[4-[(6,7-dimethoxy-1,5-naphthyridin-4-yl)oxy]-3-fluorophenyl]-6-(4-fluorophenyl)-5-methylpyrazine-2-carboxamide], the IC50 in assay [1] was less than 100 nM; in assay [2], greater than 300 nM; in assay [3], less than 100 nM.

`COc1cnc2c(Oc3c(F)cc(NC(=O)c4c(C)nc(C)c(-c5ccc(F)cc5C)c4O)c(F)c3F)ccnc2c1` [Compound 768, 5-(4-fluoro-2-methylphenyl)-4-hydroxy-2,6-dimethyl-N-[2,3,5-trifluoro-4-[(7-methoxy-1,5-naphthyridin-4-yl)oxy]phenyl]pyridine-3-carboxamide]: the IC50 in assay [1], in assay [2] and in assay [3] was less than 100 nM each time.

As to `COc1cc2nccc(Oc3ccc(NC(=O)c4c(C)nnc(-c5ccc(F)cc5C)c4OC)cc3F)c2nc1OC` [Compound 773, N-[4-[(6,7-dimethoxy-1,5-naphthyridin-4-yl)oxy]-3-fluorophenyl]-6-(4-fluoro-2-methylphenyl)-5-methoxy-3-methylpyridazine-4-carboxamide], the IC50 in assay [1], in assay [2] and in assay [3] was less than 100 nM throughout.

Turning to `COc1cc2nccc(Oc3ccc(NC(=O)c4c5n(c(C)c(-c6ccc(F)cc6)c4=O)CCOC5)cc3F)c2nc1OC` [Compound 775, N-[4-[(6,7-dimethoxy-1,5-naphthyridin-4-yl)oxy]-3-fluorophenyl]-7-(4-fluorophenyl)-6-methyl-8-oxo-3,4-dihydro-1H-pyrido[2,1-c][1,4]oxazine-9-carboxamide], the IC50 in assay [1], in assay [2] and in assay [3] was less than 100 nM throughout.

Turning to `COc1cc2nccc(Oc3ccc(NC(=O)c4nn(CC(F)F)c(C)c(-c5ccc(F)cc5)c4=O)cc3)c2nc1OC` [Compound 776, 1-(2,2-difluoroethyl)-N-[4-[(6,7-dimethoxy-1,5-naphthyridin-4-yl)oxy]phenyl]-5-(4-fluorophenyl)-6-methyl-4-oxopyridazine-3-carboxamide], the IC50 is less than 100 nM in assay [1], greater than 300 nM in assay [2] and less than 100 nM in assay [3].
